Key:
[1] = test system: human glioma cell line U343mga; assay: Cell uptake of boronated compounds (boron content by DCP-AES); assay type: cell-based; conditions: U343mga cells, 6 hours incubation, 5×10^−4 M boron; for Boron content expressed as a function of total cell protein, Trial 1: trial 1: 7.2 μg boron/ml culture medium; for Boron content expressed as a function of total cell protein, Trial 2: trial 2: 7.7 μg boron/ml culture medium
Procedure: (§1) Four different tumour cell lines of human origin, including human glioma cell line U343mga, human hepatocarcinoma cell line Hep3B, human breast adenocarcinoma cell line MCF7 and human sarcoma cell line 4SS, were used for in vitro testing of the purified material from Example 3 (hereinafter designated as BF). Cells were plated on non-coated tissue culture plastics and cultured at 37° C. in incubators with humidified air, equilibrated with 5% CO2. They were grown in recommended tissue culture medium, supplemented with 10% FCS and PEST (penicillin 100 IU/ml and streptomycin […]). For passage of cells, cells were trypsinized with trypsin-EDTA (0.25% trypsin, 0.02% EDTA in phosphate buffered saline (PBS) without calcium and magnesium).
U343 mga cells were plated on Petri dishes at 75% cell density and incubated with one of boric acid (BA), vitamin B12 conjugated boron (BB), 1-4-dihydroxyboryl-phenylalanine (BPA) or BF dissolved in tissue culture medium for 6 hours. All four boronated compounds were added to and dissolved in the tissue culture medium at equimolar concentrations with respect to the boron content (5×10^−4 M boron). Incubations were stopped by removing the boron-containing tissue culture medium and by adding cold PBS buffer for washing excess of medium from cells. Cells were immediately harvested by scraping them off the plastic dish using a rubber policeman. They were collected in cold PBS and pelleted by centrifugation.
(§2) Cell samples were taken for total protein analysis according to a standard Bradford procedure. Cell pellets were processed for boron analysis by Direct Current Plasma-Atomic Emission Spectroscopy (DCP-AES). Samples (50-130 mg) were digested at 60° C. with sulfuric acid/nitric acid (1/1). Triton X-100 and water added to give a concentrations of 50 mg tissue/ml, 15% total acid v/v and 5% Triton X-100 v/v. The boron concentrations were based on a known reference sample.

U343mga cells = assay: Intracellular retention of boron after withdrawal of boron containing medium; assay type: cell-based, human; conditions: for Boron content in U343mga cells, 0 hour after withdrawal of boron containing medium / Boron content in U343mga cells, 2 hours after withdrawal of boron containing medium / Boron content in U343mga cells, 7 hours after withdrawal of boron containing medium: 18 hours incubation, 5×10^−4 M boron
Procedure: as §1, §2
U343 mga cells, were plated on Petri dishes at 75% cell density and incubated with one of 1-4-dihydroxyboryl-phenylalanine (BPA) or BF in tissue culture medium for 18 hours. Both boronated compounds were added to the tissue culture medium at equimolar concentrations with respect to the boron content (5×10^−4 M boron). Incubations were stopped by replacing the boron-containing medium with culture medium without boron. Cell samples were harvested at time points 0, 2 and 7 hours where the 0 time point represents immediate after 18 hour incubation of boronated compound.
Cells were washed with cold PBS and harvested by scraping them off the plastic dish using a rubber policeman, collected in cold PBS and pelleted by centrifugation. Cell pellets were analysed for total protein and boron content as described.

[2] = test system: human hepatocarcinoma cell line Hep3B; assay: BF uptake by different tumor cells: Hep3B; assay type: cell-based; conditions: 6 hours incubation
Procedure: as §1
as §2, with “sample. […]” for “sample.”

[3] = test system: human breast adenocarcinoma cell line MCF7; assay: BF uptake by different tumor cells: MCF7; assay type: cell-based; conditions: 6 hours incubation
Procedure: as §1
as §2, with “sample. […]” for “sample.”

U343mga = assay: BF uptake by different tumor cells: U343mga; assay type: cell-based, human; conditions: 6 hours incubation
Procedure: as §1
as §2, with “sample. […]” for “sample.”

[4] = test system: human sarcoma cell line 4SS; assay: BF uptake by different tumor cells: 4SS; assay type: cell-based; conditions: 6 hours incubation
Procedure: as §1
as §2, with “sample. […]” for “sample.”

[5] = test system: tumour cell lines of human origin; assay: In vitro studies in tumour cell lines: signs of toxicity; assay type: cell-based; conditions: Examples 4-6
Procedure: as §1

OB(O)O [BA, boric acid]
Boron content expressed as a function of total cell protein, Trial 1 [1]: 8 μg boron/g cell protein

N[C@@H](Cc1ccc(B(O)O)cc1)C(=O)O [BPA, 1-4-dihydroxyboryl-phenylalanine, reference compound]
Boron content in U343mga cells, 0 hour after withdrawal of boron containing medium (U343mga cells): 0.075 μg boron/g cell pellet
Boron content in U343mga cells, 2 hours after withdrawal of boron containing medium (U343mga cells): 0 μg boron/g cell pellet
Boron content in U343mga cells, 7 hours after withdrawal of boron containing medium (U343mga cells): 0 μg boron/g cell pellet
Boron content expressed as a function of total cell protein, Trial 1 [1]: 65 μg boron/g cell protein
Boron content expressed as a function of total cell protein, Trial 2 [1]: 38 μg boron/g cell protein

N^2-(4-{[(2-amino-4-oxo-3,4-dihydropteridin-6-yl)methyl]amino}benzoyl)-N-{3-[(1R,9S)-2,3,4,5,6,7,8,10,11,12-decaborabicyclo[7.2.1]dodec-1-yl]propyl}-α-glutamine and N^2-(4-{[(2-amino-4-oxo-3,4-dihydropteridin-6-yl)methyl]amino}benzoyl)-N-[3-(2,3,4,5,6,7,8,10,11,12-decaborabicyclo[7.2.1]dodec-1-yl)propyl]-L-glutamine [BF]
Boron content expressed as a function of total cell protein, Low cell density ([2]; 40-50% (low) cell density): 171 μg boron/g cell protein
Boron content expressed as a function of total cell protein, High cell density ([2]; 90-100% (high) cell density): 219 μg boron/g cell protein
Boron content expressed as a function of total cell protein, Low cell density ([3]; MCF7, 40-50% (low) cell density): 108 μg boron/g cell protein
Boron content expressed as a function of total cell protein, High cell density ([3]; MCF7, 90-100% (high) cell density): 169 μg boron/g cell protein
Boron content expressed as a function of total cell protein, Low cell density (U343mga; 40-50% (low) cell density): 108 μg boron/g cell protein
Boron content expressed as a function of total cell protein, High cell density (U343mga; 90-100% (high) cell density): 172 μg boron/g cell protein
Share of the total uptake retained in tumour cells (U343mga cells; 7 hours after total depletion of BF in the culture medium): 40%
Boron content in U343mga cells, 0 hour after withdrawal of boron containing medium (U343mga cells): 0.79 μg boron/g cell pellet
Boron content in U343mga cells, 2 hours after withdrawal of boron containing medium (U343mga cells): 0.59 μg boron/g cell pellet
Boron content in U343mga cells, 7 hours after withdrawal of boron containing medium (U343mga cells): 0.3 μg boron/g cell pellet
Boron content expressed as a function of total cell protein, Trial 1 [1]: 560 μg boron/g cell protein
Boron content expressed as a function of total cell protein, Trial 2 [1]: 440 μg boron/g cell protein
Boron content expressed as a function of total cell protein, Low cell density ([4]; 40-50% (low) cell density): 263 μg boron/g cell protein
Boron content expressed as a function of total cell protein, High cell density ([4]; 90-100% (high) cell density): 367 μg boron/g cell protein
Signs of toxicity in in vitro studies [5]: without any signs of toxicity

Reference: patent US8183247B2, “Boron compounds useful in BNCT” (Hammercap AB, priority 2005, dated 2012)
